Results: patent publication US6087401A, “Cyclopentenones, process for preparing the same, and the use thereof” (Takara Shuzo Co., Ltd., priority 1996, dated 2000)
Converted amounts (≈) assume the structure as drawn. Like-named read-outs stand apart in the source and are kept apart here.

Experiments:
[1] = test system: HL-60 cells; assay: cancer cell differentiation (Wright-Giemsa stain); type: cell-based, human; conditions: control around 10%
Procedure: (2) To HL-60 cells was added 10^-4 μg/ml of the cyclopentenone and an incubation by the same manner as in Example 15-(1) was conducted for three days. […] The result was that the differentiated cells were around 10% in the control where no cyclopentenone was added while, in the fractions to which the cyclopentenone was added, 50% or more cells were differentiated to monocyte- or to macrophage-like cells.
The result was that the differentiated cells were around 10% in the control where no cyclopentenone was added while, in the fraction to which 0.005 μg/ml of the cyclopentenone was added, 25% or more cells were differentiated to mature bone marrow cells.

[2] = test system: Salmonella typhimurium LT-2 (ATCC 27106); assay: growth turbidity, microorganism (14); type: cell-based; conditions: 8 h, control 273
Description: (§1) They were testing microorganism (13): Escherichia coli HB101 (ATCC 33694); testing microorganism (14): Salmonella typhimurium LT-2 (ATCC 27106); testing microorganism (15): Pseudomonas aeruginosa (IFO 3080); testing microorganism (16): Staphylococcus aureus 3A (NCTC 8319); testing microorganism (17): Bacillus subtilis (IFO 3034); and testing microorganism (18): Streptococcus mutans (GS5; stored at National Institute of Health).
(§2) The testing microorganisms were subjected to a seed culture overnight in an L-broth (1% tryptone, 0.5% yeast extract and […]; pH 7.0). The seed culture (5 μl) was inoculated to a medium to which 25-200 μg/ml of cyclopentenone was added to 5 ml of L-both and also to a medium to which nothing was added and a shake incubation was conducted at 37° C. to measure the growth. At the initiation of the incubation and also at eight hours thereafter, turbidity of the culture was measured using a Fuji Digital Turbidimeter (sold from Fuji Kogyo KK; manufactured by Akiyama Denki Seisakusho) under the condition that the adjusted scale was 82.3 and the growth of the tested microorganism was measured from the value (growth turbidity) obtained by deducting the turbidity at the initiation of incubation from that after eight hours. Incidentally, in the case of the testing microorganism (18), a brain heart infusion was used instead of L-broth.

[3] = test system: Staphylococcus aureus 3A (NCTC 8319); assay: growth turbidity, microorganism (16); type: cell-based; conditions: 8 h, control 243
Description: as §1, §2

[4] = test system: Streptococcus mutans (GS5); assay: growth turbidity, microorganism (18); type: cell-based; conditions: 8 h, control 140
Description: as §1, §2

[5] = test system: Lactobacillus fructivorans (IFO 13118); assay: antibacterial activity to hiochi bacteria, microorganism A; type: cell-based; conditions: five days; for Growth Turbidity (OD600): control 0.96
Procedure: (§3) The testing microorganism was subjected to a stationary incubation for five days in an SI medium (Japan Brewery Association) containing 10% of ethanol to give a seed microorganism. The seed microorganism (0.1%) was added to 100 ml of 10% ethanol-containing SI medium to which the cyclopentenone was added in an amount of 0, 25, 50, 75 or 100 μg/ml (in terms of final concentration), then a stationary incubation was conducted for five days and the turbidity was measured. In measuring the turbidity, the value of OD600 was measured using an absorbance meter. A value of OD600 of the medium to which no testing microorganism was inoculated was deducted from the above value and this (growth turbidity) was used for the growth of the tested microorganism.
(§4) The tested microorganisms were as follows. Thus, Lactobacillus fructivorans (IFO 13118) (testing microorganism A), Lactobacillus fructivorans (JCM 1198) (testing microorganism B) and Lactobacillus homohiochii (IFO 13120) (testing microorganism C) as true hiochi bacteria while Lactobacillus rhamnosus (IFO 3532) (testing microorganism D) was used as hiochi lactobacteria.

[6] = test system: Lactobacillus fructivorans (JCM 1198); assay: antibacterial activity to hiochi bacteria, microorganism B; type: cell-based; conditions: five days; for Growth Turbidity (OD600): control 2.03
Procedure: as §3, §4

[7] = test system: Lactobacillus homohiochii (IFO 13120); assay: antibacterial activity to hiochi bacteria, microorganism C; type: cell-based; conditions: five days; for Growth Turbidity (OD600): control 1.61
Procedure: as §3, §4

[8] = test system: Vibrio parahaemolyticus 4387-61 and Vibrio parahaemolyticus T4144-1; assay: antibacterial and bactericidal action to Vibrio; type: cell-based
Procedure: (1) Vibrio parahaemolyticus 4387-61 or Vibrio parahaemolyticus T4144-1 (both stored at National Institute of Hygienic Sciences) was inoculated to make 10^6 cells/ml to a trypto-soya bouillon medium (manufactured by Nissui) containing […], 3.13 or 1.56 μg/ml of the cyclopentenone and a stationary incubation was conducted at 37° C. for 24 hours.
The culture (50 μl) where no growth of the microorganism was noted was spread on 20 ml of a trypto-soya bouillon agar medium containing no cyclopentenone and incubation was conducted at 37° C. for 24 hours. The result was that, in any of the strains, no growth of microorganism was noted on the agar medium on which a fraction (to which 50 μg/ml or more cyclopentenone was added) was spread.

[9] = test system: Legionella pneumophila (isolated from a washing of human bronchus); type: cell-based; conditions: 12 ppm, common logarithm
[10] = test system: Saccharomyces cerevisiae ATCC 9763; assay: antimicrobial activity to fungi; type: cell-based; conditions: high concentrations
[11] = 25 days
[12] = test system: mice; conditions: oral, 100 mg/kg
[13] = test system: Mouse leukemia P-388; assay: life-prolonging effect, leukemia P-388; conditions: 10 mg/kg/day i.p., five days
[14] = stability of the cyclopentenone in solution (TLC)

O=C1C=CC(O)C1O (stereo not drawn) [the cyclopentenone, 4,5-dihydroxy-2-cyclopenten-1-one]
cells differentiated to mature bone marrow cells ([1]; 0.005 μg/ml, three or six days): ≥ 25% | cells differentiated to monocyte- or to macrophage-like cells ([1]; 10^-4 μg/ml, three days): ≥ 50% | Growth Turbidity ([2]; 100 μg/ml): 0 | Growth Turbidity ([2]; 200 μg/ml): 0 | Growth Turbidity ([3]; 25 μg/ml): 203 | Growth Turbidity ([3]; 50 μg/ml): 158 | Growth Turbidity ([3]; 100 μg/ml): 0 | Growth Turbidity ([3]; 200 μg/ml): 0 | Growth Turbidity ([4]; 25 μg/ml): 133 | Growth Turbidity ([4]; 50 μg/ml): 130 | Growth Turbidity ([4]; 100 μg/ml): 34 | Growth Turbidity ([4]; 200 μg/ml): 6 | Growth Turbidity (OD600) ([5]; 25 μg/ml): 0.17 | Growth Turbidity (OD600) ([5]; 50 μg/ml): 0.02 | Growth Turbidity (OD600) ([5]; 75 μg/ml): 0 | MIC ([5]; Fructilactobacillus fructivorans, IFO13118, 120 h, read-out: concentration completely inhibiting growth): 75 µg/mL (≈ 657 µM) | Growth Turbidity (OD600) ([6]; 25 μg/ml): 0.01 | Growth Turbidity (OD600) ([6]; 50 μg/ml): 0 | Growth Turbidity (OD600) ([6]; 75 μg/ml): 0 | MIC ([6]; Fructilactobacillus fructivorans, JCM1198, 120 h, read-out: concentration completely inhibiting growth): 50 µg/mL (≈ 438 µM) | Growth Turbidity (OD600) ([7]; 25 μg/ml): 0.32 | Growth Turbidity (OD600) ([7]; 50 μg/ml): 0.08 | Growth Turbidity (OD600) ([7]; 75 μg/ml): 0 | MIC ([7]; IFO13120, 120 h, read-out: concentration completely inhibiting growth): 75 µg/mL (≈ 657 µM) | MIC ([8]; 37° C., 24 hours, both strains, read-out: concentration showing antibacterial action (no growth)): 12.5 µg/mL (≈ 110 µM) | MBC ([8]; 24 h, read-out: concentration showing bactericidal action): 50 µg/mL (≈ 438 µM) | Numbers of Tested Microorganism Cells after Incubation ([9]; 16 h, 0 ppm 6.9): 5.7 log10 CFU/ml | Numbers of Tested Microorganism Cells after Incubation ([9]; 96 h, 0 ppm 8.7): 8.3 log10 CFU/ml | antimicrobial activity [10]: antimicrobial activity at high concentrations | storage stability (amount of the cyclopentenone) ([11]; 4° C. and -20° C.): almost stable | storage stability (amount of the cyclopentenone) ([11]; 37° C.): some decrease | toxicity [12]: not show toxicity | life-prolonging rate [13]: 306.1% | average surviving days ([13]; control 10.3 days): 31.4 days | stability ([14]; 25 mM in 10 mM tris (pH 10), room temperature, immediately after dissolution): rapid decomposition | stability ([14]; in water, 121° C., 30 minutes): most of the cyclopentenone was left nondecomposed
